Data set [1] deals with Thr231 phosphorylated Tau. In words: Tau phosphorylation (Thr231) in neuronal primary cultures (MSD). It is filed as cell-based, mice. Particulars: neurons, 50 μM, 100 μM and 150 μM for 18 h. Here is the method:
FIG. 7. Plots illustrating the effect of Aftin-5 mediated attenuation of Tau phosphorylation in neuronal primary cultures. Culture media of cortical neurons were replaced by incubation medium containing Aftin-5 at 100 μM (A100) or 150 μM (A150) or vehicle (0.1% DMSO; Control). After 18 h incubation pTau (Thr231) and total Tau were quantified by sandwich immunoassay using the Meso Scale Discovery technology. Different Tau concentrations were expressed versus total proteins concentration. Kruskal-Wallis test and Dunn's Multiple Comparison post-hoc tests were performed and ***p<0.001 indicates significant differences between Aftin-5 and control conditions. Data expressed as means+/−SEM (n=6 wells/condition).
Hippocampi and cortex were dissected in HBSS containing 5 mM glucose (dissection medium). […] Cells were counted and seeded at a density of 22,000 per cm^2 for hippocampal neurons and 10^5 per cm^2 for cortical neurons into 24 wells culture plates (Costar) in plating medium (DMEM medium containing 10% heat-inactivated horse serum (Life Technologies)). […]
Tau and P-Tau in primary rat neurons, organotypic hippocampal slice cultures from wild type (WT) and transgenic Tau mice (3 Tg) after by Aftin-5. Tau was quantified by sandwich immunoassay using the Meso Scale Discovery technologies. […] After a short incubation (5 min) at room temperature, the plate is read on the SECTOR Imager 2400. […]

For a further data set, the system named is IL-1β. Nature of the data set: IL-1β mRNA in OHSC (RT-qPCR). It is filed as cell-based, mice. Particulars: 50 μM, 10 days, vs vehicle, P<0.001. Here is the method: (§1) FIG. 10. Plots illustrating the effect of Aftin-5 on relative mRNA expression levels of interleukin-1-beta (IL-1β; (A)), interleukin-6 (IL-6; (B)), TNF-alpha (TNFα; (C)) and interleukin-10 (IL-10; (D)) in organotypic hippocampal slice cultures (OHSC). OHSC culture media […] were replaced by incubation medium containing Aftin-5 (50 μM; A50) or vehicle (0.1% DMSO; Veh). 10 days later, total mRNA in lysate was isolated and purified, cDNAs were then synthesized from […] of total mRNA. cDNAs were amplified by quantitative RT-PCR and the relative expression of specific genes was normalized to the housekeeping gene HPRT1 (2^−ΔCt). Mann-Whitney tests were performed and ***p<0.001 indicates significant differences between Aftin-5 and control conditions. Data expressed as means+/−SEM from q=3 independent experiments with n=4-6 inserts/condition and 10 slices/insert. […]
(§2) The impact of Aftin-5 on gene expression of different biomarkers was determined by measuring mRNA levels of selected BDNF, CREB, PS95, INS Receptor/IGF-1 receptor, IL-1β, IL-6 in OHSC treated chronically with Aftin-5 or in a total brain from mice exposed to Aftin-5 at either 8 or 30 mg/Kg. […] Threshold cycles (Ct) of target gene and cyclophilin A (Ppia−control housekeeping gene) were recorded and gene expression was calculated as 2^−ΔΔCt(ΔΔCt=ΔCttreated−ΔCtcontrol, ΔCt=Cttarget−CtPpia). […]

For another data set, the system named is TNF-α. In words: TNF-α mRNA in OHSC (RT-qPCR). The format is cell-based, mice. Particulars: 50 μM, 10 days. Here is the method: as §1, §2
A general note: Quantitative PCR measures a nucleic acid by following its amplification.

Data set [2] relates to in vitro cell based rat BBB model.
Experimental: A 20% BSA gradient was used for isolation of capillaries. After a second enzymatic digestion, cells were plated in 75 cm^2 coated culture flasks in EBM medium completed by the EGM-2 MV Single Quots kit (Lonza, Basel, Switzerland). Cultures were maintained at 37° C. in a humidified 5% CO2 atmosphere for 5-6 days before being trypsinized and frozen.
The chambers containing human glial cells and brain endothelial cells were considered as the basolateral and apical compartment, respectively. The microplates were then incubated at 37° C. in a 5% CO2 atmosphere. Under these experimental conditions, brain endothelial cells formed a confluent monolayer within 15 days.
After checking BBB integrity, Transwells® with BEC monolayers were transferred to new plates. T buffer (150 mM NaCl, 5.2 mM KCl, 2.2 mM CaCl2, 0.2 mM MgCl2, 6 mM NaHCO3, 2.8 mM glucose and 5 mM Hepes) was added 1.5 mL to the basal chamber (B) and 0.5 ml to the apical chamber (A). […] The Papp value was calculated as followed: Papp=dQ/dT×A×C0 (1) where dQ/dT: amount of drug transported per time-point; A: membrane surface area; Co: donor concentration at time-point 0. […] The mass balance was calculated as follows: R (%)=([(Ap+Bs)/A0]×100 (2) where Ap and Bs are the amount of tested compounds in the apical and basal compartments, respectively. A0 is the initial amount in the donor compartment.
Another data set in a line: in vitro. As to conditions: rat.

The term Papp denotes the rate of passage across a membrane or cell layer, normalised by area and donor concentration. A high value points to fast passage. For the compound `CC[C@H](CO)Nc1nc(N(C)c2ccccc2)c2ncn(C(C)C)c2n1` [Aftin-5], the “Thr231 phosphorylated Tau protein” value in data set [1] was “significant dose dependent decrease”. The IL-1β-mRNA synthesis entry in the data set with IL-1β is “significantly decrease”. For the same compound, in the data set on TNF-α, the “TNF-α mRNA synthesis” value is given as “no changes”. For the same compound, the “Papp compared to Papp value of memantine” value in data set [2] is “not significantly different”. In “in vitro”, this compound displayed a Papp at 60 min, 10 μM of about 35 ×10⁻⁶ cm/s.
